# Assay results reported in US6897238B2, “Topical aminolevulinic acid-photodynamic therapy for the treatment of acne vulgaris” (General Hospital Corporation, priority 2000, dated 2005).
# Tests used:
# sebaceous glands [1] = test: Histologic examination and planimetry of punch biopsies; conditions: for Reduction of cytoplasm/nuclear cross-section area ratio in sebocyte relative to non-treatment: 3 weeks
# P. acnes = test: Fluorescence photography of follicular bacterial porphyrin (red fluorescent dots); type: in vivo, human
# Protocol: (§1) Sites were marked withtemplates to precisely relocate each test area. […] Then, 20% topical ALA in a hydroalcoholic vehicle (Levulan, a gift from DUSA pharmaceutical) was applied for 3h under occlusion with plastic film (Saran wrap), and 150 J/cm^2 broad band light (550-700 nm) was given to the ALA-PDT and light alone areas. […] In both groups, subjects returned one week after treatments for clinical evaluations and at weeks 2, 3, 10 and 20 for clinical, fluorescence, and SER evaluations.
# A Nikon E2N digital camera body with a Nikon 105 mm macro lens was used. A filter (Corion LL-550S) was placed on the lens to block light below 550 nm. The excitation light source was composed of two synchronized photoflashes with Norman 400 watt-second lampheads (FT400/FT6), mounted on a stationary tower with angles of incidence of 60 degrees bilaterally. Two 400 nm bandpass filters with 5 nm bandwidth (Corion S40-400S) were placed on the flashes. By this method, the punctate orange-red fluorescence of hair follicles populated with P. acnes was seen. Fluorescence emission has been attributed to bacterial coproporphyrin III and protoporphyrin IX, and intensity of fluorescence is related to the P. acnes population. Fluorescence photography was performed at week, 0, 2, 3, 10 and 20 in all sites. The number of punctate red flourescent dots was counted blindly for each test area.
# (§2) Statistical significance was defined as p value of less than 0.05.
# pilosebaceous units = test: ALA-induced PpIX fluorescence in skin (fluorescence microscopy / photography); type: in vivo, human
# Protocol: Punch biopsy specimens (4 mm) were taken immediately after PDT, a few weeks after PDT, and at 20 weeks from both the untreated control and ALA-PDT areas. […] Histologic examination was performed. […] To determine the level of PpIX converted from ALA in the pilosebaceous units, punch biopsy specimens were also taken from ALA-treated areas after 3 h occlusion as described above.
# [2] = Adverse effects, clinical evaluation and subjective sensation; type: in vivo, human; conditions: for Subjects with burning sensation / Subjects with itching: multiple ALA-PDT
# Protocol: Adverse effects were scored by clinical evaluation of erythema, edema, loss of epidermis, hyperpigmentation, hemorrhage, vesiculation, and exfoliation on a visual-analogue scale from 0 to 3 (0=absent, 1=mild, 2=moderate, 3=severe) for each finding. Subjective sensation of pain, burning, and itching was generally maximum about 10 minutes into light exposure, and was ranked at that time and the end of treatment (1 hour), by subjects on a scale from 0 to 3 similar to above.
# sebaceous glands [3] = test: Sebum excretion rate (SER) by Sebutape; conditions: ALA plus red light
# acne vulgaris [4] = test: Global clinical-improvement grading by blinded dermatologists from photographs; type: in vivo, human
# Protocol: as §1
# Clinical improvement was globally assessed by 3 dermatologists unaware of the status of treatment, who blindly graded changes in acne from fixed-magnification clinical photographs, after being shown a small set standardized series of training slides not used in the data evaluation. The grading scale was defined as −3 for >50% exacerbation, −2 for 25^+−50% exacerbation, −1 for 1^+−25% exacerbation, 0 if unchanged, 1 for 1^+−25% improvement, 2 for 25^+−50% improvement, 3 for 50^+−75% improvement, 4 for 75^+−99% improvement, and 5 for 100% improvement, as compared to the baseline.
# as §2
# acne vulgaris [5] = test: Inflammatory acne score, open-label human study of topical ALA-PDT on the back
# [6] = multiple treatment group, 20 weeks after the last treatment
# [7] = twenty weeks after a single ALA-PDT treatment
# [8] = multiple treatments, ALA plus red light
# [9] = single treatment, ALA plus red light
# [10] = multiple-treatment subjects, after 4 treatments
# [11] = single-treatment subjects, at 20 weeks
structure (smiles),measurement,setting,value
"NCC(=O)CCC(=O)O [ALA, 5-aminolevulinic acid]",Reduction of sebaceous gland size compared with untreated control area,sebaceous glands [1]; 3 weeks after multiple ALA-PDT,55%
same,Reduction of sebaceous gland size compared with untreated control area,sebaceous glands [1]; 3 weeks after single ALA-PDT,30%
same,Histologic finding in sebaceous gland lobules,sebaceous glands [1]; 20 weeks after multiple ALA-PDT treatments,complete destruction or 25 marked atrophy of sebaceous gland lobules
same,"Reduction of sebaceous gland size, mean decrease",sebaceous glands [1]; immediately after PDT,40%
same,Reduction of cytoplasm/nuclear cross-section area ratio in sebocyte relative to non-treatment,sebaceous glands [1]; multiple PDT,56%
same,Reduction of sebaceous gland size,sebaceous glands [1]; [6],45%
same,"Reduction of sebaceous gland size, range",sebaceous glands [1]; [6],15-80%
same,Reduction of sebocyte cytoplasm/nuclear area,sebaceous glands [1]; [6],46%
same,"Reduction of sebocyte cytoplasm/nuclear area, range",sebaceous glands [1]; [6],39-53%
same,Reduction of cytoplasm/nuclear cross-section area ratio in sebocyte relative to non-treatment,sebaceous glands [1]; single PDT,38%
same,"Reduction of sebaceous gland size, mean decrease",sebaceous glands [1]; [7],17%
same,Sebocyte cytoplasm/nuclear area ratio,sebaceous glands [1]; [7],not reduced
same,"Fluorescence related to P. acnes, multiple versus single treatment group","P. acnes; ALA plus red light, four times versus single","better, but not significant, improvement"
same,Duration of significant decrease of fluorescence of endogenous porphyrins associated with P. acnes,P. acnes; after both single and multiple ALA-PDT,at least 20 weeks
same,Fluorescence related to P. acnes versus baseline,"P. acnes; multiple treatments, ALA alone, week 10 and 20",significantly greater fluorescence than baseline
same,Fluorescence related to P. acnes versus baseline,P. acnes; [8],"significant loss of P. acnes, fluorescence, starting at follow-up visit 2"
same,"Fluorescence related to P. acnes, difference to the other 3 test sites",P. acnes; [8],statistically significant for all visits
same,Fluorescence related to P. acnes versus baseline,P. acnes; [9],"significant loss of fluorescence related to P. acnes, which lasted for all 4 follow-up visits"
same,"Fluorescence related to P. acnes, difference to the other 3 test sites",P. acnes; [9],statistically significant for all visits
same,Porphyrin fluorescence of fresh-frozen sections compared with untreated skin,"pilosebaceous units; after ALA application, 3 h occlusion, fluorescence microscopy",bright porphyrin fluorescence in epidermis and pilosebaceous units
same,"PpIX fluorescence, sebocytes versus follicular epithelial cells","pilosebaceous units; after ALA application, fluorescence microscopy",brighter PpIX fluorescence in sebocytes than in the adjacent follicular epithelial cells
same,"ALA-induced PpIX fluorescence, acne lesions versus surrounding tissue",pilosebaceous units; fluorescence photography,greater in acne lesions than surrounding tissue
same,Patients with acute eruption of inflammatory acneiform lesions,"[2]; ALA-PDT sites only, both groups",100%
same,Exfoliation after 3 weeks post treatment,[2]; all subjects,None of the subjects had exfoliation
same,Scarring,"[2]; all subjects, both groups",no site in any subject had any scarring
same,"Erythema and edema, time course","[2]; both groups, 1 hour after treatment",substantial decrease in erythema and edema by 1 hour after treatment
same,Subjects with burning sensation,[2]; treatment 1,9%
same,Subjects with itching,[2]; treatment 1,73%
same,Subjects with burning sensation,[2]; treatment 2,67%
same,Subjects with itching,[2]; treatment 2,73%
same,Subjects with burning sensation,[2]; treatment 3,67%
same,Subjects with itching,[2]; treatment 3,55%
same,Subjects with burning sensation,[2]; treatment 4,73%
same,Subjects with itching,[2]; treatment 4,55%
same,Subjects still showing some degree of pigmentation,"[2]; multiple PDT, 20 weeks after treatment",55%
same,Patients who could not continue the weekly treatment scheme and had to postpone their next treatment,[2]; multiple treatment group,Six
same,Acneiform lesions induced by subsequent treatments,[2]; multiple-treatment group,almost no new acneiform lesions were observed after treatment 4
same,"Duration of transient purpura, average",[2]; [10],1 week
same,"Subjects with superficial but very prominent exfoliation, transient purpura and partial loss of epidermis",[2]; [10],10%
same,Main subjective discomfort,[2]; single ALA-PDT group,"itching was the main discomfort in the single ALA-PDT group, and pain was the least"
same,Subjects in whom erythema faded away completely,[2]; [11],82%
same,Subjects in whom hyperpigmentation faded away completely,[2]; [11],91%
same,Sebum excretion after PDT (summary),sebaceous glands [3],"eliminated for several weeks, and decreased for 20 weeks"
same,"SER, multiple versus single treatment group","sebaceous glands [3]; difference significant only at 20 weeks, all visits combined p=0.001",suppressed SER more than single ALA-PDT
same,"SER, difference to the other 3 areas",sebaceous glands [3]; multiple treatments,statistically significant at all 4 visits
same,Sebum excretion rate (SER) versus baseline,sebaceous glands [3]; multiple treatments,"significant decrease in SER, at all follow-up visits"
same,SER versus the other test sites,sebaceous glands [3]; single treatment,"significantly lower than any other test sites, at each follow-up visit"
same,Sebum excretion rate (SER) versus baseline,"sebaceous glands [3]; single treatment, weeks 2, 3, 20",significant decrease of SER
same,"Global clinical-improvement score, multiple versus single treatment group","acne vulgaris [4]; ALA plus red light, first 2 follow-up visits (week 1 & 2)",significantly better improvement than the single ALA-PDT treatment group
same,"Duration of obvious and significant improvement of acne, blinded clinical assessment",acne vulgaris [4]; after 4 treatments,at least 20 weeks
same,"Duration of obvious and significant improvement of acne, blinded clinical assessment",acne vulgaris [4]; after a single ALA-PDT treatment,at least 10 weeks
same,Global clinical-improvement score versus baseline,"acne vulgaris [4]; multiple treatments, ALA alone, visit 2 and visit 5",improvement reaching statistical significance
same,Global clinical-improvement score versus baseline,acne vulgaris [4]; [8],Significant improvement
same,Global clinical-improvement score versus the other 3 sites,acne vulgaris [4]; [8],"significantly better improvement in the ALA-PDT treated site than the other 3 sites, at all follow-up visits"
same,Global clinical-improvement score versus baseline,acne vulgaris [4]; [9],significant global improvement starting week 3 and extending through week 20
same,"Global clinical-improvement score, difference to the other three treatment sites",acne vulgaris [4]; [9],statistically significant at weeks 3 and 10
same,"Inflammatory acne score, multiple versus single treatment group, all follow-up visits combined","acne vulgaris [5]; ALA alone, P=0.007",better improvement than the single treatment group
same,"Inflammatory acne score, multiple versus single treatment group","acne vulgaris [5]; ALA plus red light, first 3 follow-up visits",significantly better improvement than the single ALA-PDT treatment group
same,"Inflammatory acne score, multiple versus single treatment group, all follow-up visits combined","acne vulgaris [5]; ALA plus red light, p<0.001",better improvement than the single treatment group
same,Duration of clinical and statistically significant clearance of inflammatory acne,acne vulgaris [5]; after a single treatment,≥ 10 weeks
same,Duration of clinical and statistically significant clearance of inflammatory acne,acne vulgaris [5]; after multiple ALA-PDT treatments,at least 20 weeks
same,"Inflammatory acne score, change from baseline","acne vulgaris [5]; multiple (4 weekly) treatments, ALA plus red light",obvious and statistically significant improvement in acne at all follow-up visits
same,"Inflammatory acne score, change from baseline","acne vulgaris [5]; multiple treatments, ALA alone, no light",no improvement
same,"Inflammatory acne score, change from baseline versus the other three sites","acne vulgaris [5]; multiple treatments, ALA plus red light, all visits, p<0.05",significantly greater
same,"Inflammatory acne score, ALA alone versus untreated area","acne vulgaris [5]; multiple treatments, visit 2 (week 2) only, p=0.046",barely-significant improvement
same,"Inflammatory acne score, change from baseline","acne vulgaris [5]; single treatment, 20% topical ALA 3 h occlusion + 150 J/cm^2 red light","improvement in acne, which was statistically significant starting 3 weeks after treatment"
same,"Inflammatory acne score, change from baseline","acne vulgaris [5]; single treatment, ALA alone, no light, all visits",slightly worse acne not significantly different than baseline
same,"Inflammatory acne score, change from baseline versus the other three areas",acne vulgaris [5]; [9],"the differences were statistically significant at 3, 10, 20 weeks"
